Tests used:
Type in all cases: in vivo
[1] = test system: Mythimna separata Walker; test: Activity of killing Mythimna separata Walker (leaf dipping method); conditions: for Mortality: 4th instar larvae, corn leaf dipping, 24 hours
Description: 1) Activity of killing Mythimna separata Walker: Mythimna separata Walker, a normal population raised indoors. In the leaf dipping method, corn leaves are dipped in a liquid medicine ([…]) prepared by acetone, and the 4th instar larvae are inoculated after the liquid medicine, mainly for stomach toxicity and contact killing, and the feeding phenomenon of the larvae is observed. Mortality was examined 24 hours.

[2] = test system: Culex pipiens pallens; test: Activity of killing Culex pipiens pallens larvae; conditions: for Mortality: 10 ppm, 4th instar mosquito larvae in water, 24 h
Description: 2) Activity of killing Culexpipiens pallens larval: Culicides pallens, a normal indoor population. Weigh about 5 mg of the test compound into a penicillin vial, add 5 mL of acetone (or a suitable solvent), and shake to dissolve, i.e. 1000 μg·ml^−1 mother liquor. 0.5 mL mother liquor was removed and added into a 100 mL beaker containing […] of water. Ten 4th instar mosquito larvae were selected and poured into the beaker together with 10 mL of feeding liquid. The concentration of the liquid medicine was 10 μg·ml^−1. Place the treatment in the standard treatment room, and check the results 24 h. The blank control was an aqueous solution containing 0.5 mL of test solvent.

[3] = test system: Helicoverpa armigera; test: Activity of killing Helicoverpa armigera (leaf soaking method); conditions: for Mortality: 600 ppm, third-instar larvae, corn leaf soaking, 72 hours
Description: 3) Activity of killing Helicoverpa armigera:Helicoverpa armigera, a normal population raised indoors. Test method: leaf soaking method. In the leaf soaking method, corn leaves are soaked in a liquid medicine prepared by acetone (600 ppm, 600 mg/L), ground and put into 24 holes after the liquid medicine is dried, one third-instar larva is inserted into each hole, 10 are used for each time, and three times are repeated, a total of 30 test insects are tested, mainly gastric toxicity and contact killing effects, and the feeding phenomenon of the larva is observed. Mortality was examined 72 hours later.

[4] = test system: Ostrinia nubilalis Hubner; test: Activity of killing Ostrinia nubilalis Hubner (leaf soaking method); conditions: for Mortality: 600 ppm (table), 3rd instar larvae, corn leaf dipping, 72 hours
Source text: 4) Activity of killing Ostrinia nubilalis Hubner: Ostrinia nubilalis Hubner, a normal population raised indoors. Test method: leaf soaking method. In the leaf dipping method, corn leaves are dipped in a liquid medicine prepared by acetone ([…]), 10 3rd instar larvae are inoculated into a culture dish after the liquid medicine is dried, and 30 test larvae are shared for three times, mainly gastric toxicity and contact killing effects, and the feeding phenomenon of the larvae is observed. Mortality was examined 72 hours later.

For `CC1CC(=O)C(C(=O)Nc2ccccc2)=C(Nc2ccccc2)C1` (centres unmarked) [compound 3b], the Mortality ([1]; 600 ppm) was 35%, the Mortality [2] was 70% and the Mortality [3] was 15%. The Mortality [4] was 20%.
In the case of `CC1(C)CC(=O)C(C(=O)Nc2ccccc2)=C(Nc2ccccc2)C1` [compound 3c], the Mortality ([1]; 600 ppm) is reported as 30%, the Mortality [2] is reported as 80% and the Mortality [3] is reported as 10%. For the same compound, the Mortality [4] was 15%.
In the case of `CCC1CC(=O)C(C(=O)Nc2ccccc2)=C(Nc2ccccc2)C1` (centres unmarked) [compound 3d], the Mortality ([1]; 200 ppm) is reported as 100%, the “lethal rate to armyworm” value ([1]; concentration of 200 ppm) is reported as 100% and the Mortality [2] is reported as 20%. For the same compound, the Mortality [3] was 100%, the “lethal rate to cotton bollworm” value ([3]; concentration of 600 ppm) was 100% and the Mortality [4] was 100%. The “lethal rate to Ostrinia nubilalis Hubner” value ([4]; concentration of 600 ppm) was 100%.
For `CCCC1CC(=O)C(C(=O)Nc2ccccc2)=C(Nc2ccccc2)C1` (centres unmarked) [compound 3e], the Mortality ([1]; 600 ppm) was 55%, the Mortality [2] was 100% and the “lethal rate to Culex pipiens larvae” value ([2]; concentration of 10 ppm) was 100%. It also gave a Mortality [3] of 25% and a Mortality [4] of 30%.

Source: patent US11453638B2, “Process method for producing pesticide by using carbon dioxide” (Nankai University, priority 2018, dated 2022)
